Results from patent publication US9828385B2, “Spiro-oxazolones” (Hoffmann-La Roche Inc., priority 2014, dated 2017).

Molecular target: T1, human V1a receptor (Homo sapiens, UniProt P37288)
T1 construct: expressed in transfected cells; host or cells: HEK293 cells, transiently transfected; cell membranes
Assay: human V1a receptor binding studies (3H-Vasopressin, SPA beads)
Settings: membranes of HEK293 cells transiently transfected with human V1a receptor, Ki by Cheng-Prussoff from IC50, read-out: pKi hV1a (converted)
Description: The human V1a receptor was cloned by RT-PCR from total human liver RNA. The coding sequence was subcloned in an expression vector after sequencing to confirm the identity of the amplified sequence. […] Cell membranes were prepared from HEK293 cells transiently transfected with the expression vector and grown in 20 liter fermenters with the following protocol.
50 g of cells are re-suspended in 30 ml freshly prepared ice cold Lysis buffer (50 mM HEPES, 1 mM EDTA, 10 mM MgCl2 adjusted to pH=7.4+complete cocktail of protease inhibitor (Roche Diagnostics)). Homogenized with Polytron for 1 min and sonicated on ice for 2×2 minutes at 80% intensity (Vibracell sonicator). The preparation is centrifuged 20 min at 500 g at 4° C., the pellet is discarded and the supernatant centrifuged 1 hour at 43′000 g at 4° C. (19′000 rpm). The pellet is re-suspended in 12.5 ml Lysis buffer+12.5 ml Sucrose 20% and homogenized using a Polytron for 1-2 min. The protein concentration is determined by the Bradford method and aliquots are stored at −80° C. until use. For binding studies 60 mg Yttrium silicate SPA beads (Amersham) are mixed with an aliquot of membrane in binding buffer (50 mM Tris, 120 mM NaCl, 5 mM KCl, 2 mM CaCl2, 10 mM MgCl2) for 15 minutes with mixing. 50 μl of bead/membrane mixture is then added to each well of a 96 well plate, followed by 50 μl of 4 nM 3H-Vasopressin (American Radiolabeled Chemicals). For total binding measurement 100 μl of binding buffer are added to the respective wells, for non-specific binding 100 μl of […] cold vasopressin and for compound testing 100 μl of a serial dilution of each compound in 2% DMSO. The plate is incubated 1 h at room temperature, centrifuged 1 min at 1000 g and counted on a Packard Top-Count. Non-specific binding counts are subtracted from each well and data is normalized to the maximum specific binding set at 100%. To calculate an IC 50 the curve is fitted using a non-linear regression model (XLfit) and the Ki is calculated using the Cheng-Prussoff equation.

T1 sequence (P37288 whole entry): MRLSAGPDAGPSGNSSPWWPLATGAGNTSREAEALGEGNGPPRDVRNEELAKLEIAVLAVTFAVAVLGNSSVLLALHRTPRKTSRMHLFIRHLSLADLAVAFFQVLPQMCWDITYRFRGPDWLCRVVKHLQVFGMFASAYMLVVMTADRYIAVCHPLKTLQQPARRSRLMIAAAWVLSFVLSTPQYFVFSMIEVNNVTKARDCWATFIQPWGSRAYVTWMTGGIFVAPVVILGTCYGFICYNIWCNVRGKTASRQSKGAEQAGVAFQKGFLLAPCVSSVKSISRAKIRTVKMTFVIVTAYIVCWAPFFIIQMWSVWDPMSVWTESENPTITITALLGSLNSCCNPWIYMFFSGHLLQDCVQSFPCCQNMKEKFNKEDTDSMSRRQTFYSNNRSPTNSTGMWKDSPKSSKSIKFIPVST

Ki [nM] | SMILES
31.6 | CCCCCC1CCC2(CC1)OC(N1CCC3(CC1)OC(=O)c1ccccc13)=NC2=O (single isomer, unassigned; diastereomer a) [Example 126, 1′-[4-Oxo-8-pentyl-1-oxa-3-azaspiro[4.5]dec-2-en-2-yl]-3H-spiro[2-benzofuran-1,4′-piperidin]-3-one diastereomer a]
20 | CCCCCC1CCC2(CC1)OC(N1CCC3(CC1)OCc1ccccc13)=NC2=O (single isomer, unassigned; diastereomer a) [Example 128, 8-Pentyl-2-(1′H,3H-spiro[2-benzofuran-1,4′-piperidin]-1′-yl)-1-oxa-3-azaspiro[4.5]dec-2-en-4-one diastereomer a]
1000 | CCOC(=O)C1[C@H]2CC3(C[C@@H]12)OC(N1CCC2(CC1)OCc1ccccc12)=NC3=O (single isomer, unassigned; diastereomer a) [Example 148, Ethyl 4′-oxo-2′-(1′H,3H-spiro[2-benzofuran-1,4′-piperidin]-1′-yl)-4′H-spiro[bicyclo[3.1.0]hexane-3,5′-[1,3]oxazole]-6-carboxylate diastereomer a]
126 | O=C1N=C(N2CCC3(CC2)OCc2ccccc23)OC1C(O)c1ccc(Cl)cc1 (single isomer, unassigned; diastereomer b) [Example 44, (−)-5-[(4-Chlorophenyl)(hydroxy)methyl]-2-(1′H,3H-spiro[2-benzofuran-1,4′-piperidin]-1′-yl)-1,3-oxazol-4(5H)-one diastereomer b]
15.8 | O=C1N=C(N2CCC3(CC2)OCc2ccccc23)OC1C(O)c1ccc(Cl)cc1 (single isomer, unassigned; diastereomer b) [Example 45, (+)-5-[(4-Chlorophenyl)(hydroxy)methyl]-2-(1′H,3H-spiro[2-benzofuran-1,4′-piperidin]-1′-yl)-1,3-oxazol-4(5H)-one diastereomer b]
126 | CC1(CC2CCOC2)OC(N2CCC3(CC2)OCc2ccccc23)=NC1=O (single isomer, unassigned; diastereomer b) [Example 100, 5-Methyl-2-(1′H,3H-spiro[2-benzofuran-1,4′-piperidin]-1′-yl)-5-(tetrahydrofuran-3-ylmethyl)-1,3-oxazol-4(5H)-one diastereomer b]
50.1 | CC1(CC2CCCOC2)OC(N2CCC3(CC2)OCc2ccccc23)=NC1=O (single isomer, unassigned; diastereomer b) [Example 104, (+)-5-Methyl-2-(1′H,3H-spiro[2-benzofuran-1,4′-piperidin]-1′-yl)-5-(tetrahydro-2H-pyran-3-ylmethyl)-1,3-oxazol-4(5H)-one diastereomer b]
501 | CC1(CC2CCCOC2)OC(N2CCC3(CC2)OCc2ccccc23)=NC1=O (single isomer, unassigned; diastereomer b) [Example 105, (−)-5-Methyl-2-(1′H,3H-spiro[2-benzofuran-1,4′-piperidin]-1′-yl)-5-(tetrahydro-2H-pyran-3-ylmethyl)-1,3-oxazol-4(5H)-one diastereomer b]
10 | CC(c1ccccc1)C1(C)OC(N2CCC3(CC2)OCc2ccccc23)=NC1=O (single isomer, unassigned; diastereomer b) [Example 107, 5-Methyl-5-(1-phenylethyl)-2-(1′H,3H-spiro[2-benzofuran-1,4′-piperidin]-1′-yl)-1,3-oxazol-4(5H)-one diastereomer b]
6.31 | CC(c1ccccc1)C1(C)OC(N2CCC3(CC2)OCc2ccccc23)=NC1=O (single isomer, unassigned; diastereomer b) [Example 110, (−)-5-Methyl-5-(1-phenylethyl)-2-(1′H,3H-spiro[2-benzofuran-1,4′-piperidin]-1′-yl)-1,3-oxazol-4(5H)-one diastereomer b]
251 | CC(c1ccccc1)C1(C)OC(N2CCC3(CC2)OCc2ccccc23)=NC1=O (single isomer, unassigned; diastereomer b) [Example 111, (+)-5-Methyl-5-(1-phenylethyl)-2-(1′H,3H-spiro[2-benzofuran-1,4′-piperidin]-1′-yl)-1,3-oxazol-4(5H)-one diastereomer b]
6.31 | CC(=O)O[C@H]1CC2(C[C@H]1OC(C)=O)OC(N1CCC3(CC1)OCc1ccccc13)=NC2=O (single isomer, unassigned; diastereomer b) [Example 121, 4-Oxo-2-(1′H,3H-spiro[2-benzofuran-1,4′-piperidin]-1′-yl)-1-oxa-3-azaspiro[4.4]non-2-ene-7,8-diyl diacetate diastereomer b]
251 | CCCCCC1CCC2(CC1)OC(N1CCC3(CC1)OC(=O)c1ccccc13)=NC2=O (single isomer, unassigned; diastereomer b) [Example 127, 1′-[4-Oxo-8-pentyl-1-oxa-3-azaspiro[4.5]dec-2-en-2-yl]-3H-spiro[2-benzofuran-1,4′-piperidin]-3-one diastereomer b]
158 | CCCCCC1CCC2(CC1)OC(N1CCC3(CC1)OCc1ccccc13)=NC2=O (single isomer, unassigned; diastereomer b) [Example 129, 8-Pentyl-2-(1′H,3H-spiro[2-benzofuran-1,4′-piperidin]-1′-yl)-1-oxa-3-azaspiro[4.5]dec-2-en-4-one diastereomer b]
50.1 | O=C1N=C(N2CCC3(CC2)OCc2ccccc23)OC12C[C@@H]1OCCO[C@@H]1C2 (single isomer, unassigned; diastereomer b) [Example 145, 2′-(1′H,3H-Spiro[2-benzofuran-1,4′-piperidin]-1′-yl)-2,3,4a,5,7,7a-hexahydro-4′H-spiro[cyclopenta[b][1,4]dioxine-6,5′-[1,3]oxazol]-4′-one diastereomer b]
200 | CCOC(=O)C1[C@H]2CC3(C[C@@H]12)OC(N1CCC2(CC1)OCc1ccccc12)=NC3=O (single isomer, unassigned; diastereomer b) [Example 149, Ethyl 4′-oxo-2′-(1′H,3H-spiro[2-benzofuran-1,4′-piperidin]-1′-yl)-4′H-spiro[bicyclo[3.1.0]hexane-3,5′-[1,3]oxazole]-6-carboxylate diastereomer b]
251 | CCCCC1OC(N2CCC3(CC2)OC(=O)c2ccccc23)=NC1=O (single isomer, unassigned; enantiomer a) [Example 5, 1′-[5-Butyl-4-oxo-4,5-dihydro-1,3-oxazol-2-yl]-3H-spiro[2-benzofuran-1,4′-piperidin]-3-one enantiomer A]
0.794 | O=C1N=C(N2CCC3(CC2)OCc2ccccc23)OC1CC1CCCC1 (single isomer, unassigned; enantiomer a) [Example 13, 5-(Cyclopentylmethyl)-2-(1′H,3H-spiro[2-benzofuran-1,4′-piperidin]-1′-yl)-1,3-oxazol-4(5H)-one enantiomer A]
2.51 | O=C1OC2(CCN(C3=NC(=O)C(CC4CCCC4)O3)CC2)c2ccccc21 (single isomer, unassigned; enantiomer a) [Example 15, 1′-[5-(Cyclopentylmethyl)-4-oxo-4,5-dihydro-1,3-oxazol-2-yl]-3H-spiro[2-benzofuran-1,4′-piperidin]-3-one enantiomer A]
251 | O=C1OC2(CCN(C3=NC(=O)C(Cc4ccccc4)O3)CC2)c2ccccc21 (single isomer, unassigned; enantiomer a) [Example 20, 1′-[5-Benzyl-4-oxo-4,5-dihydro-1,3-oxazol-2-yl]-3H-spiro[2-benzofuran-1,4′-piperidin]-3-one enantiomer A]
25.1 | CC1(Cc2ccccc2)OC(N2CCC3(CC2)OC(=O)c2ccccc23)=NC1=O (single isomer, unassigned; enantiomer a) [Example 72, 1′-[5-Benzyl-5-methyl-4-oxo-4,5-dihydro-1,3-oxazol-2-yl]-3H-spiro[2-benzofuran-1,4′-piperidin]-3-one enantiomer A]
20 | CC1(Cc2ccc(Cl)cc2)OC(N2CCC3(CC2)OC(=O)c2ccccc23)=NC1=O (single isomer, unassigned; enantiomer a) [Example 80, 1′-[5-(4-Chlorobenzyl)-5-methyl-4-oxo-4,5-dihydro-1,3-oxazol-2-yl]-3H-spiro[2-benzofuran-1,4′-piperidin]-3-one enantiomer A]
20 | CCCCC1OC(N2CCC3(CC2)OC(=O)c2ccccc23)=NC1=O (single isomer, unassigned; enantiomer b) [Example 6, 1′-[5-Butyl-4-oxo-4,5-dihydro-1,3-oxazol-2-yl]-3H-spiro[2-benzofuran-1,4′-piperidin]-3-one enantiomer B]
